Calls of active or inactive are those of the source. The rule behind the calls is not given here.

The text below walks through data of ChEMBL document CHEMBL5385857, “Optimization and SAR research at the benzoxazole and tetrazole rings of JNJ4796 as new anti-influenza A virus agents, part 2” (Eur J Med Chem, 2023).

The test system of data set [1] is Influenza A virus. Briefly: Antiviral activity against influenza A virus H1N1 A/Puerto Rico/8/1934 infected in Kunming mouse assessed as survival rate at 5 to 15 mg/kg, po administered with compound twice daily for 7 days followed by viral infection on day 2 and measured for 14 days relative to control. The data set is classed as functional. The settings on record: dose 5-15 mg/kg, time 14 day.

Data set [2] deals with Influenza A virus. As to the kind of experiment: Antiviral activity against influenza A virus H1N1 A/Puerto Rico/8/1934 infected in Kunming mouse assessed as survival rate at 1.67 mg/kg, po administered with compound twice daily for 7 days followed by viral infection on day 2 and measured for 14 days relative to control. In kind it is functional. The settings on record: H1N1 A/Puerto Rico/8/1934, 336 h, time 14 day.

The test system of data set [3] is Infectious bronchitis virus. As to the kind of experiment: Antiviral activity against Infectious bronchitis virus. The data set is classed as functional, organism-based.
For data set [4], the system named is Influenza A virus. As to the kind of experiment: Antiviral activity against Influenza A virus H3N2 subtype. In kind it is functional, organism-based.
Data set [5] can be described thus: Toxicity in Kunming mouse infected with influenza A virus H1N1 A/Puerto Rico/8/1934 assessed as reduction in body weight at 5 to 15 mg/kg, po administered with compound twice daily for 7 days followed by viral infection on day 2 and measured for 14 days relative to oseltamivir. In kind it is organism-based. The conditions noted are these: in vivo, 336 h, dose 5-15 mg/kg, time 14 day.

Data set [6] can be described thus: Tmax in Balb/c mouse at 25 mg/kg, po administered as single dose. The data set is classed as ADME, organism-based. The conditions noted are these: in vivo.
A short description of data set [7]: AUC (0 to infinity) in Balb/c mouse at 25 mg/kg, po administered as single dose. Set-up: dose 25 mg/kg, route po. The data set is classed as ADME, organism-based. The settings on record: in vivo.
The nature of data set [8]: Elimination half life in Balb/c mouse at 25 mg/kg, po administered as single dose. The data set is classed as ADME, organism-based. The conditions noted are these: in vivo, read-out: beta t1/2 (converted).
The nature of data set [9]: Cmax in Balb/c mouse at 25 mg/kg, po administered as single dose. In kind it is ADME, organism-based. Also noted: dose 25 mg/kg, route po. The settings on record: in vivo.
Data set [10] is described as follows: Selectivity index, ratio of CC50 for MDCK cells to IC50 for influenza A virus infected in MDCK cells. The data set is classed as toxicity, cell-based. The settings on record: dog, read-out: Ratio CC50/IC50.
For data set [11], the system named is Influenza A virus. Briefly: Antiviral activity against influenza A virus H1N1 infected in MDCK cells. The data set is classed as functional, organism-based.
Data set [12] concerns Influenza A virus. As to the kind of experiment: Antiviral activity against influenza A virus H1N1 A/Puerto Rico/8/1934 infected in Kunming mouse assessed as survival rate at 15 mg/kg, po administered with compound twice daily for 7 days followed by viral infection on day 2 and measured for 14 days relative to control. The data set is classed as functional. The settings on record: H1N1 A/Puerto Rico/8/1934, 336 h, time 14 day.

Data set [13] in a line: Cytotoxicity against MDCK cells. The data set is classed as toxicity, cell-based, Canis lupus familiaris. The conditions noted are these: dog.
In the next data set the target is hERG (KCNH2) (Homo sapiens, UniProt Q12809). Briefly: Inhibition of hERG at 10 uM relative to control. The data set is classed as toxicity.
Sequence of hERG (KCNH2) (Q12809 whole entry): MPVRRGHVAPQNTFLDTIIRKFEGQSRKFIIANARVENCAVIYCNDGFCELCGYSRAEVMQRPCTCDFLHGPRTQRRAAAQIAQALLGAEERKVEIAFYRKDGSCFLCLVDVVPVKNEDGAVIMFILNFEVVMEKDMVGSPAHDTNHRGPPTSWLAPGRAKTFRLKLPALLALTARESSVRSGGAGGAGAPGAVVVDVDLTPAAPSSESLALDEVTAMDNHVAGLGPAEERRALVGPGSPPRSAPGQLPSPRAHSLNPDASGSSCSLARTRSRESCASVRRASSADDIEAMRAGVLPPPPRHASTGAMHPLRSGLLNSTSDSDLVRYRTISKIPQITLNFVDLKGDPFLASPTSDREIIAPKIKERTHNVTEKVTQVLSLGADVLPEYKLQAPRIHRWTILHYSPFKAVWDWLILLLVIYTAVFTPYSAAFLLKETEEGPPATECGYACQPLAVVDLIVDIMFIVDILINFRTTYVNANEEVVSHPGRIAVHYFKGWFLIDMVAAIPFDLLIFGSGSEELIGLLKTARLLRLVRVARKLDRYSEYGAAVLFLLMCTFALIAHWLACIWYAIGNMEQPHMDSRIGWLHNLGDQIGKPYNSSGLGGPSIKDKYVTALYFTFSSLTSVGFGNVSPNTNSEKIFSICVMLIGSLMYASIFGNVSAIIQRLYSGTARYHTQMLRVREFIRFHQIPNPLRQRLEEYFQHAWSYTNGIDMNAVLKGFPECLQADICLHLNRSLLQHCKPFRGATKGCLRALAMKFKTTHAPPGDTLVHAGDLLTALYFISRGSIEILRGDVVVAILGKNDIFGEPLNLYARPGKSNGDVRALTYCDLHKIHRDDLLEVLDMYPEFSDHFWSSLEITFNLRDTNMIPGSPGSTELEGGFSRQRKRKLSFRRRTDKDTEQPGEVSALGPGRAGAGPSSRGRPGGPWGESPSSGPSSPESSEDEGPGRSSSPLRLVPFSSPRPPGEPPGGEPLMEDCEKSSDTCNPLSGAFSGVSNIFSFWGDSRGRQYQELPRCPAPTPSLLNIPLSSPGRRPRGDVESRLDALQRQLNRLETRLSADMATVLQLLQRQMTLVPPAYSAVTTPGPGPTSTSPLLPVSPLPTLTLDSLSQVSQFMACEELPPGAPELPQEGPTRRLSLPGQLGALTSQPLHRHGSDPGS
Data set [14] is described as follows: Toxicity in Kunming mouse infected with influenza A virus H1N1 A/Puerto Rico/8/1934 assessed as reduction in body weight at 1.67 to 15 mg/kg, po administered with compound twice daily for 7 days followed by viral infection on day 2 and measured for 14 days relative to oseltamivir. In kind it is organism-based. The settings on record: in vivo, 336 h, dose 1.67-15 mg/kg, time 14 day.

Data set [15] can be described thus: Gastrointestinal toxicity in Kunming mouse infected with influenza A virus H1N1 A/Puerto Rico/8/1934 assessed as soft stool at 1.67 to 15 mg/kg, po administered with compound twice daily for 7 days followed by viral infection on day 2 and measured for 14 days. The data set is classed as organism-based. The settings on record: in vivo, 336 h, dose 1.67-15 mg/kg, time 14 day.

Regarding `CC(=O)Nc1ccc2oc(-c3ccnc(C(=O)N4CCN([C@H](c5ccccc5)c5nnn(C)n5)CC4)c3)nc2c1`, in the data set on Influenza A virus [1], the Survival amounted to 100%. Further, the survival at 1.67 mg/kg in the data set on Influenza A virus [2] was found to be 80%. Moreover, the result (in [3]; with Influenza A virus [4]) was inactive. For the same compound, the Activity result in data set [5] was “Non-Toxic”.

As usually defined, the Tmax is the time at which the peak concentration occurs. The term AUC(0-inf) denotes the area under the concentration-time curve extrapolated to infinity. Higher therefore signals more exposure. A word on the Cmax: it is the highest concentration seen after dosing. The term IC50 denotes the point on the concentration scale where inhibition reaches its midpoint. A lower IC50 goes with greater potency. In general, CC50 refers to the concentration that lowers cell viability or growth by half. A word on the inhibition: it is the percentage by which the read-out fell short of the control. Higher therefore signals strong suppression. `CC(=O)Nc1ccc2oc(-c3ccnc(C(=O)N4CCN([C@H](c5ccc(F)cc5)c5nnn(C(C)C)n5)CC4)c3)nc2c1`: the Tmax in [6] was 15 min. The same compound yielded an AUC(0-inf) in data set [7] of 2980 ng·h/mL. Besides, in [8], the half-life is 75 min. The compound further had a Cmax in [9] of 3770 ng/mL. In addition, the selectivity ratio in [10] was greater than 3330. In the data set on Influenza A virus [11], this compound came in with an IC50 of 0.03 µM. Further, the survival at 15 mg/kg in the data set on Influenza A virus [12] was determined as 80%. The same compound registered a CC50 in [13] greater than 100 µM. The compound further showed an inhibition at 10 µM on hERG (KCNH2) of 27.1%.

With `CC(=O)Nc1ccc2oc(-c3ccnc(C(=O)N4CCN(C(c5ccc(F)cc5)c5nnn(C)n5)CC4)c3)nc2c1` (configuration not stated), the outcome (in data set [3]; in the data set with Influenza A virus [4]) was inactive.

As for `CC(=O)Nc1ccc2oc(-c3ccnc(C(=O)N4CCN([C@H](c5ccc(F)cc5)c5nnn(C6CCCC6)n5)CC4)c3)nc2c1`, in [6], the Tmax is 15 min. This compound registered an AUC(0-inf) in data set [7] of 692 ng·h/mL. Moreover, the half-life in data set [8] was 26.5 min. Also, the peak level in [9] (Cmax) was 992 ng/mL. The selectivity ratio in [10] is 792. This compound also gave an IC50 with Influenza A virus [11] of 0.11 µM. In data set [13], half-maximal cytotoxicity (CC50) was put at 87.2 µM.

Regarding `CC(=O)Nc1ccc2oc(-c3ccnc(C(=O)N4CCN([C@H](c5ccc(F)cc5)c5nnn(C)n5)CC4)c3)nc2c1`, the Survival in the data set with Influenza A virus [1] is 100%. The survival at 1.67 mg/kg with Influenza A virus [2] was 70%. The Activity entry in data set [14] is “Non-Toxic”; in data set [15] it was “Toxic”. The compound also came in with a CC50 in data set [13] greater than 100 µM.

Consider `C=Cn1nnc([C@@H](c2ccc(F)cc2)N2CCN(C(=O)c3cc(-c4nc5cc(NC(C)=O)ccc5o4)ccn3)CC2)n1`, for which the Tmax in [6] turned out to be 15 min. This compound showed an AUC(0-inf) in data set [7] of 2100 ng·h/mL. Also, the half-life in data set [8] is 94.2 min. This compound also yielded a Cmax in data set [9] of 2130 ng/mL. Also, the selectivity ratio in data set [10] is greater than 3330. Moreover, the IC50 in the data set on Influenza A virus [11] amounted to 0.03 µM. In data set [13], the CC50 is greater than 100 µM. On hERG (KCNH2), this compound had an inhibition at 10 µM of 36.4%.

As for `CC(=O)Nc1ccc2oc(-c3ccnc(C(=O)N4CCN([C@@H](c5ccc(F)cc5)c5nnn(C(C)C)n5)CC4)c3)nc2c1`, the selectivity ratio in data set [10] is greater than 39. This compound also displayed an IC50 in the data set with Influenza A virus [11] of 2.56 µM. In addition, the CC50 in data set [13] was greater than 100 µM.

In the case of `CCCCn1nnc([C@H](c2ccc(F)cc2)N2CCN(C(=O)c3cc(-c4nc5cc(NC(C)=O)ccc5o4)ccn3)CC2)n1`, the selectivity ratio in [10] was greater than 83. The same compound displayed an IC50 with Influenza A virus [11] of 1.2 µM. The same compound yielded a CC50 in [13] greater than 100 µM.
